According to PubChem BioAssay AID1963975 (Molecular Pharmacology Branch, DTP, NCI, 2024):
Blank lines part the entries; values can stand above or below the molecule they belong to.

System: 624824-186-R-J2-PDC multicell spheroids, viability
Experiment: Anticancer human tumor 624824-186-R-J2-PDC patient-derived colon adenocarcinoma cell line growth inhibition [PI3K]
Details: for viability, T/C: stronger effect = lower value
Outline: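 Stroma-containing spheroids: tumor line, pooled-donor HUVEC, hMSC. Treatments: targeted agents with PI3K inhibitors. Dosing: clinically relevant, half-log spacing, 10 microM ceiling without known Cmax. Read-out: cell viability.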

[1] = curve of first compound, second compound 0.00316 µM
[2] = curve of first compound, second compound 0.01 µM
[3] = curve of first compound, second compound 0.0316 µM
[4] = curve of first compound, second compound 0.1 µM
[5] = curve of first compound, second compound 0.316 µM
[6] = curve of first compound, second compound 1 µM
[7] = second compound 0.0316 µM, first compound 0.0316 µM
[8] = second compound 0.0316 µM, first compound 0.1 µM
[9] = second compound 0.1 µM, first compound 0.0316 µM
[10] = second compound 0.1 µM, first compound 0.1 µM
[11] = second compound 0.316 µM, first compound 0.0316 µM
[12] = second compound 0.316 µM, first compound 0.1 µM
[13] = second compound 1 µM, first compound 0.0316 µM
[14] = second compound 1 µM, first compound 0.1 µM
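Note: spheroids exposed to agents for 7 days before viability read.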
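Throughout, for viability, T/C: 100% = DMSO vehicle treated spheroids.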

IC50 [1]: > 3 µM
IC50 [2]: > 3 µM
IC50 [3]: > 3 µM
IC50 [4]: > 3 µM
IC50 [5]: 2.93 µM
IC50 [6]: 0.669 µM
Compound: Cn1cnc2c(F)c(Nc3ccc(Br)cc3Cl)c(C(=O)NOCCO)cc21 + CC(Nc1ccc2c(c1)OCCn1cc(N3C(=O)OCC3C(F)F)nc1-2)C(N)=O
viability, T/C (second compound 0.00316 µM, first compound 0.00949 µM): 89.3%
viability, T/C (second compound 0.00316 µM, first compound 0.03 µM): 76.8%
viability, T/C (second compound 0.00316 µM, first compound 0.0949 µM): 76%
viability, T/C (second compound 0.00316 µM, first compound 0.3 µM): 74.8%
viability, T/C (second compound 0.00316 µM, first compound 0.949 µM): 87.8%
viability, T/C (second compound 0.00316 µM, first compound 3 µM): 78.7%
viability, T/C (second compound 0.01 µM, first compound 0.00949 µM): 87.2%
viability, T/C (second compound 0.01 µM, first compound 0.03 µM): 71.2%
viability, T/C (second compound 0.01 µM, first compound 0.0949 µM): 81.9%
viability, T/C (second compound 0.01 µM, first compound 0.3 µM): 70.9%
viability, T/C (second compound 0.01 µM, first compound 0.949 µM): 89.6%
viability, T/C (second compound 0.01 µM, first compound 3 µM): 81.8%
viability, T/C (second compound 0.0316 µM, first compound 0.00949 µM): 72.1%
viability, T/C (second compound 0.0316 µM, first compound 0.03 µM): 66.2%
viability, T/C (second compound 0.0316 µM, first compound 0.0949 µM): 75.7%
viability, T/C (second compound 0.0316 µM, first compound 0.3 µM): 77.4%
viability, T/C (second compound 0.0316 µM, first compound 0.949 µM): 85.8%
viability, T/C (second compound 0.0316 µM, first compound 3 µM): 67.1%
viability, T/C (second compound 0.1 µM, first compound 0.00949 µM): 83.3%
viability, T/C (second compound 0.1 µM, first compound 0.03 µM): 68.2%
viability, T/C (second compound 0.1 µM, first compound 0.0949 µM): 61.1%
viability, T/C (second compound 0.1 µM, first compound 0.3 µM): 84.2%
viability, T/C (second compound 0.1 µM, first compound 0.949 µM): 67.9%
viability, T/C (second compound 0.1 µM, first compound 3 µM): 78.8%
viability, T/C (second compound 0.316 µM, first compound 0.00949 µM): 102%
viability, T/C (second compound 0.316 µM, first compound 0.03 µM): 68.1%
viability, T/C (second compound 0.316 µM, first compound 0.0949 µM): 74%
viability, T/C (second compound 0.316 µM, first compound 0.3 µM): 68.6%
viability, T/C (second compound 0.316 µM, first compound 0.949 µM): 60.2%
viability, T/C (second compound 0.316 µM, first compound 3 µM): 50.1%
viability, T/C (second compound 1 µM, first compound 0.00949 µM): 68.2%
viability, T/C (second compound 1 µM, first compound 0.03 µM): 68.8%
viability, T/C (second compound 1 µM, first compound 0.0949 µM): 66.3%
viability, T/C (second compound 1 µM, first compound 0.3 µM): 59.1%
viability, T/C (second compound 1 µM, first compound 0.949 µM): 46%
viability, T/C (second compound 1 µM, first compound 3 µM): 29.5%

IC50 [3]: > 10 µM
IC50 [4]: > 10 µM
IC50 [5]: > 10 µM
IC50 [6]: > 10 µM
IC50 (curve of first compound, second compound 3.16 µM): > 10 µM
IC50 (curve of first compound, second compound 10 µM): > 10 µM
Compound: CC(C)NCC(C(=O)N1CCN(c2ncnc3c2C(C)CC3O)CC1)c1ccc(Cl)cc1 (stereo unspecified) + Cc1nc(NC(=O)N2CCCC2C(N)=O)sc1-c1ccnc(C(C)(C)C(F)(F)F)c1
viability, T/C [7]: 88.1%
viability, T/C [8]: 106%
viability, T/C (second compound 0.0316 µM, first compound 0.316 µM): 72.2%
viability, T/C (second compound 0.0316 µM, first compound 1 µM): 85%
viability, T/C (second compound 0.0316 µM, first compound 3.16 µM): 93.3%
viability, T/C (second compound 0.0316 µM, first compound 10 µM): 68.2%
viability, T/C [9]: 79.3%
viability, T/C [10]: 72.6%
viability, T/C (second compound 0.1 µM, first compound 0.316 µM): 85%
viability, T/C (second compound 0.1 µM, first compound 1 µM): 68.1%
viability, T/C (second compound 0.1 µM, first compound 3.16 µM): 76.5%
viability, T/C (second compound 0.1 µM, first compound 10 µM): 74.4%
viability, T/C [11]: 78.2%
viability, T/C [12]: 68.2%
viability, T/C (second compound 0.316 µM, first compound 0.316 µM): 77.5%
viability, T/C (second compound 0.316 µM, first compound 1 µM): 75.3%
viability, T/C (second compound 0.316 µM, first compound 3.16 µM): 79.6%
viability, T/C (second compound 0.316 µM, first compound 10 µM): 64.9%
viability, T/C [13]: 64.5%
viability, T/C [14]: 85.9%
viability, T/C (second compound 1 µM, first compound 0.316 µM): 63.4%
viability, T/C (second compound 1 µM, first compound 1 µM): 86.4%
viability, T/C (second compound 1 µM, first compound 3.16 µM): 76.5%
viability, T/C (second compound 1 µM, first compound 10 µM): 75.4%
viability, T/C (second compound 3.16 µM, first compound 0.0316 µM): 78.2%
viability, T/C (second compound 3.16 µM, first compound 0.1 µM): 79.8%
viability, T/C (second compound 3.16 µM, first compound 0.316 µM): 81.3%
viability, T/C (second compound 3.16 µM, first compound 1 µM): 82.2%
viability, T/C (second compound 3.16 µM, first compound 3.16 µM): 68%
viability, T/C (second compound 3.16 µM, first compound 10 µM): 55.9%
viability, T/C (second compound 10 µM, first compound 0.0316 µM): 73.5%
viability, T/C (second compound 10 µM, first compound 0.1 µM): 66.6%
viability, T/C (second compound 10 µM, first compound 0.316 µM): 58.1%
viability, T/C (second compound 10 µM, first compound 1 µM): 62.5%
viability, T/C (second compound 10 µM, first compound 3.16 µM): 63.7%
viability, T/C (second compound 10 µM, first compound 10 µM): 55.8%

IC50 [1]: > 0.1 µM
IC50 [2]: > 0.1 µM
IC50 [3]: > 0.1 µM
IC50 [4]: > 0.1 µM
IC50 [5]: 0.0753 µM
IC50 [6]: > 0.1 µM
Compound: CC(C)n1nc(-c2ccc3oc(N)nc3c2)c2c(N)ncnc21 + COc1c(OCCCN2CCOCC2)ccc2c3n(c(=NC(=O)c4cnc(N)nc4)nc12)CCN3
viability, T/C (second compound 0.00316 µM, first compound 0.000316 µM): 82.8%
viability, T/C (second compound 0.00316 µM, first compound 0.001 µM): 95.9%
viability, T/C (second compound 0.00316 µM, first compound 0.00316 µM): 82.4%
viability, T/C (second compound 0.00316 µM, first compound 0.01 µM): 99.5%
viability, T/C (second compound 0.00316 µM, first compound 0.0316 µM): 84%
viability, T/C (second compound 0.00316 µM, first compound 0.1 µM): 70.1%
viability, T/C (second compound 0.01 µM, first compound 0.000316 µM): 104%
viability, T/C (second compound 0.01 µM, first compound 0.001 µM): 83.2%
viability, T/C (second compound 0.01 µM, first compound 0.00316 µM): 93.2%
viability, T/C (second compound 0.01 µM, first compound 0.01 µM): 86.7%
viability, T/C (second compound 0.01 µM, first compound 0.0316 µM): 80.7%
viability, T/C (second compound 0.01 µM, first compound 0.1 µM): 68.9%
viability, T/C (second compound 0.0316 µM, first compound 0.000316 µM): 90.3%
viability, T/C (second compound 0.0316 µM, first compound 0.001 µM): 78.8%
viability, T/C (second compound 0.0316 µM, first compound 0.00316 µM): 81.4%
viability, T/C (second compound 0.0316 µM, first compound 0.01 µM): 69.6%
viability, T/C [7]: 69.9%
viability, T/C [8]: 54.5%
viability, T/C (second compound 0.1 µM, first compound 0.000316 µM): 70.1%
viability, T/C (second compound 0.1 µM, first compound 0.001 µM): 77.3%
viability, T/C (second compound 0.1 µM, first compound 0.00316 µM): 58.5%
viability, T/C (second compound 0.1 µM, first compound 0.01 µM): 57.3%
viability, T/C [9]: 58.3%
viability, T/C [10]: 49.7%
viability, T/C (second compound 0.316 µM, first compound 0.000316 µM): 70.6%
viability, T/C (second compound 0.316 µM, first compound 0.001 µM): 60.7%
viability, T/C (second compound 0.316 µM, first compound 0.00316 µM): 60.7%
viability, T/C (second compound 0.316 µM, first compound 0.01 µM): 59.1%
viability, T/C [11]: 53.7%
viability, T/C [12]: 47.8%
viability, T/C (second compound 1 µM, first compound 0.000316 µM): 64.6%
viability, T/C (second compound 1 µM, first compound 0.001 µM): 52.7%
viability, T/C (second compound 1 µM, first compound 0.00316 µM): 55%
viability, T/C (second compound 1 µM, first compound 0.01 µM): 61.2%
viability, T/C [13]: 56.1%
viability, T/C [14]: 52%

IC50 (curve of compound): > 0.1 µM
Compound: Cn1ncnc1[C@H]1c2n[nH]c(=O)c3cc(F)cc(c23)N[C@@H]1c1ccc(F)cc1
viability, T/C (compound 0.000316 µM): 99.1% [middle of 4 runs]
viability, T/C (compound 0.00316 µM): 90.5% [middle of 4 runs]
viability, T/C (compound 0.0316 µM): 103% [middle of 4 runs]
viability, T/C (compound 0.1 µM): 89.3% [middle of 4 runs]
